Laboratory results reported in patent US8022207B2, “Compound having affinity to amyloid” (Nihon Medi-Physics Co., Ltd., priority 2006, dated 2011).
Where two headings read alike, the source gives them in different places.

How the values were obtained:
[1] = system: Salmonella typhimurium TA100; test: Reverse mutation test (Ames test), TA100; assay type: cell-based; conditions: maximum 5000 μg/plate
Description: (§1) In order to examine mutagenicity of Compounds 1, 2 and 4, reverse mutation test using Salmonella typhimurium TA98 and TA100 (hereinafter referred to as Ames test) was conducted.
(§2) The test was conducted without addition of S9mix and with addition of S9mix. Dimethylsulfoxide was used as a negative control. A positive control was 2-(2-furyl)-3-(5-nitro-2-furyl)acrylamide in case S9mix was not added, and 2-aminoanthracene in case S9 mix was added.
(§3) The amount of each sample to be added to the test plate was 7 dosages (geometric ratio 4) with the maximum dose being 5000 μg/plate. After a sample to be examined and a strain (TA98 or TA100), or a sample to be examined, S9mix and the strain were mixed together, the mixture was multilayered using soft agar on a medium of a test plate, and then incubated at 37° C. for 48 hours.
(§4) In order to examine mutagenicity of Compound 8, reverse mutation test using Salmonella typhimurium TA98 and TA100 (hereinafter referred to as Ames test) was conducted.
(§5) The test was conducted without addition of S9mix and with addition of S9mix. Dimethylsulfoxide was used as a negative control. A positive control was 2-(2-furyl)-3-(5-nitro-2-furyl)acrylamide in case S9mix was not added, and 2-aminoanthracene in case S9mix was added.
as §3, with “Compound 8” for “each sample”, “3)” for “4)”, “Compound 8” for “a sample to be examined”, “Compound 8,” for “a sample to be examined,”

[2] = system: Salmonella typhimurium TA98; test: Reverse mutation test (Ames test), TA98; assay type: cell-based; conditions: maximum 5000 μg/plate
Description: as §1, §2, §3, §4, §5
as §3, with “Compound 8” for “each sample”, “3)” for “4)”, “Compound 8” for “a sample to be examined”, “Compound 8,” for “a sample to be examined,”

[3] = system: Salmonella typhimurium TA98 and TA100; test: Reverse mutation test (Ames test), overall judgment; assay type: cell-based; conditions: TA98 and TA100, regardless of addition of S9mix
Description: as §1, §2, §3, §4, §5
as §3, with “Compound 8” for “each sample”, “3)” for “4)”, “Compound 8” for “a sample to be examined”, “Compound 8,” for “a sample to be examined,”

[4] = Partition coefficient based on the octanol extraction method (logPoctanol); assay type: physicochemical; conditions: octanol / 10 mmol/L phosphate buffer (pH 7.4), radioactivity count
Description: Using the obtained radioactivity count, logPoctanol was calculated in accordance with the equation (2).

[5] = target: intracerebral amyloid (aggregated Aβ1-40 injected into amygdaloid nucleus) (Homo sapiens, UniProt P05067); conditions: rat, Aβ1-40 amyloid suspension in amygdaloid nucleus, brain removed 60 minutes after tail vein injection
Description: The following experiment was carried out in order to examine whether amyloid in brain can be imaged by the compound of the present invention.
The rats were examined 1 day after the injection of the amyloid suspension and the phosphate buffered physiological saline solution (pH 7.4).
(§6) (4) Brain was removed 60 minutes after the injection to prepare a brain slice of 10 μm in thickness with a microtome (type: CM3050S, manufactured by LEICA). The brain slice was exposed to an imaging plate for 20 hours, and then image analysis was carried out by use of a Bio-imaging Analyzer (type: BAS-2500; manufactured by FUJIFILM Corporation).

[6] = Transferability into brain and clearance (Example I-16, Comparative Example I-7); conditions: brain, rats, intravenous injection
Description: Using Compound 6, a time course change of radioactive accumulation in brain of male Wistar rats (7-week old) was measured.
Also, radioactivity (hereinafter referred to as B in this Example) of 0.05 mL of a 1000-fold diluted solution of the injected solution was measured in the same manner as above. Using these measurement results, radioactive accumulation per unit weight of brain (% ID/g) at the respective time points was calculated in accordance with the following formula (5).

[7] = target: T1, intracerebral amyloid (aggregated Aβ1-42 injected into amygdaloid nucleus) (Homo sapiens, UniProt P05067); test: Ex vivo autoradiogram using rats of amyloid injected model (aggregated Aβ1-42); set-up: species or system male Wistar rat; conditions: rat, Aβ1-42 amyloid suspension in amygdaloid nucleus, brain removed 60 minutes after tail vein injection
T1 construct: Aβ1-42 (manufactured by Peptide Institute, Inc.) was dissolved in phosphate buffer (pH 7.4); purchased Peptide Institute, Inc
Description: As a control, 2.5 μL of a phosphate buffered physiological saline solution (pH 7.4) was injected into an amygdaloid nucleus on the other side of the rat. The rats were examined 1 day after the injection of the amyloid suspension and the phosphate buffered physiological saline solution (pH 7.4).
as §6

[8] = Transferability into brain and clearance (Example II-11, II-12, Comparative Example II-1); assay type: in vivo, male Wistar rats; conditions: brain, rats, intravenous injection
Description: The rats were sacrificed by bleeding from abdominal artery, and brains were removed and subjected to measurement of mass of brains and further subjected to measurement of radioactivity (hereinafter referred to as A in this Example) with a single channel analyzer (detector type: SP-20 manufactured by OHYO KOKEN KOGYO Co., Ltd.) 2, 5, 30 and 60 minutes after the injection. Also, radioactivity (hereinafter referred to as B in this Example) of the rest of the whole body was measured in the same manner as above. Using these measurement results, radioactive accumulation per unit weight of brain (% ID/g) at the respective time points were calculated in accordance with the following formula (6).
Three animals were used for experiment at the respective time points.

[9] = International Publication WO03/106439 pamphlet; cited from earlier work
[10] = [^125I]-labeled, normal mice, brain; cited from earlier work
[11] = [^125I]-labeled compounds; cited from earlier work
[12] = [^11C]-labeled, rats; cited from earlier work

T1 sequence (P05067 672-713): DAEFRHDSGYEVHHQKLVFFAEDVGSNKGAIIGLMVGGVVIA
Chain of intracerebral amyloid (aggregated Aβ1-40 injected into amygdaloid nucleus) (P05067 672-711): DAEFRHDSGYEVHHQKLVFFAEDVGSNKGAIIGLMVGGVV

## Oc1ccc(-c2cn3cc(Br)ccc3n2)cc1 [Compound 1, 6-bromo-2-(4′-hydroxyphenyl)imidazo[1,2-a]pyridine]
[1]; 7 dosages (geometric ratio 4)
  Mutagenicity, With addition of S9mix, TA100: Negative
  Mutagenicity, Without addition of S9mix, TA100: Negative
[2]; 7 dosages (geometric ratio 4)
  Mutagenicity, With addition of S9mix, TA98: Negative
  Mutagenicity, Without addition of S9mix, TA98: Negative
[3]
  Judgment in the Ames test (mutagenicity): negative

## Oc1ccc(-c2cn3cc(I)ccc3n2)cc1 [Compound 2, 2-(4′-hydroxyphenyl)-6-iodoimidazo[1,2-a]pyridine]
[1]; 7 dosages (geometric ratio 4)
  Mutagenicity, With addition of S9mix, TA100: Negative
  Mutagenicity, Without addition of S9mix, TA100: Negative
[2]; 7 dosages (geometric ratio 4)
  Mutagenicity, With addition of S9mix, TA98: Negative
  Mutagenicity, Without addition of S9mix, TA98: Negative
[3]
  Judgment in the Ames test (mutagenicity): negative

## Oc1ccc(-c2cn3cc(I)cnc3n2)cc1 [Compound 4, 2-(4′-hydroxyphenyl)-6-iodoimidazo[1,2-a]pyrimidine]
[1]; 7 dosages (geometric ratio 4)
  Mutagenicity, With addition of S9mix, TA100: Negative
  Mutagenicity, Without addition of S9mix, TA100: Negative
[2]; 7 dosages (geometric ratio 4)
  Mutagenicity, With addition of S9mix, TA98: Negative
  Mutagenicity, Without addition of S9mix, TA98: Negative
[3]
  Judgment in the Ames test (mutagenicity): negative

## Oc1ccc(-c2cn3cc([125I])ccc3n2)cc1 [Compound 5, [^125I]-2-(4′-hydroxyphenyl)-6-iodoimidazo[1,2-a]pyridine]
[4]
  logPoctanol value: 1.6

## Oc1ccc(-c2cn3cc([123I])ccc3n2)cc1 [Compound 6, [^123I]-2-(4′-hydroxyphenyl)-6-iodoimidazo[1,2-a]pyridine]
[5]
  Accumulation of radioactivity on intracerebral amyloid (autoradiogram of brain slice): possesses a property of accumulating on intracerebral amyloid
[6]
  Radioactive accumulation per unit weight, After 2 min.: 0.96 % ID/g
  Radioactive accumulation per unit weight, After 5 min.: 0.69 % ID/g
  Radioactive accumulation per unit weight, After 30 min.: 0.16 % ID/g
  Radioactive accumulation per unit weight, After 60 min.: 0.04 % ID/g

## Oc1ccc(-c2cn3cc(I)ncc3n2)cc1 [Compound 8, 2-(4′-hydroxyphenyl)-6-iodoimidazo[1,2-a]pyrazine]
[1]; 7 dosages (geometric ratio 3)
  Mutagenicity, With addition of S9mix, TA100: Negative
  Mutagenicity, Without addition of S9mix, TA100: Negative
[2]; 7 dosages (geometric ratio 3)
  Mutagenicity, With addition of S9mix, TA98: Negative
  Mutagenicity, Without addition of S9mix, TA98: Negative
[3]
  Judgment in the Ames test (mutagenicity): negative

## Oc1ccc(-c2cn3cc([123I])cnc3n2)cc1 [Compound 9, [^123I]-2-(4′-hydroxyphenyl)-6-iodoimidazo[1,2-a]pyrimidine]
[4]
  logPoctanol value: 1.7

## Oc1ccc(-c2cn3cc([123I])ncc3n2)cc1 [Compound 10, [^123I]-2-(4′-hydroxyphenyl)-6-iodoimidazo[1,2-a]pyrazine]
[7]
  Accumulation of radioactivity in the amygdaloid nucleus on the amyloid-injected side (autoradiogram of brain slice): marked accumulation of radioactivity
[4]
  logPoctanol value: 2.3
[8]
  Radioactive accumulation per unit weight, After 2 min.: 0.62 % ID/g
  Radioactive accumulation per unit weight, After 5 min.: 0.33 % ID/g
  Radioactive accumulation per unit weight, After 30 min.: 0.08 % ID/g
  Radioactive accumulation per unit weight, After 60 min.: 0.02 % ID/g

## Oc1ccc(-c2cn3cccc([123I])c3n2)cc1 [Compound 11, [^123I]-2-(4′-hydroxyphenyl)-8-iodoimidazo[1,2-a]pyridine]
[7]
  Accumulation of radioactivity in the amygdaloid nucleus on the amyloid-injected side (autoradiogram of brain slice): marked accumulation of radioactivity
[4]
  logPoctanol value: 3.0
[8]
  Radioactive accumulation per unit weight, After 2 min.: 0.65 % ID/g
  Radioactive accumulation per unit weight, After 5 min.: 0.43 % ID/g
  Radioactive accumulation per unit weight, After 30 min.: 0.09 % ID/g
  Radioactive accumulation per unit weight, After 60 min.: 0.03 % ID/g

## CC(=C(C#N)C#N)c1ccc2cc(N(C)CCF)ccc2c1 [FDDNP, 2-(1-{6-[(2-fluoroethyl)(methyl)amino]-2-naphthyl}ethylidene)malononitrile]
[9]
  Reverse mutation test result: positive

## CN(C)c1ccc(-c2nc3ccc(I)cc3o2)cc1 [IBOX, 6-iodo-2-[4′-(N,N-dimethylamino)phenyl]benzoxazole]
[10]
  Clearance from normal tissues: insufficient in clearance from normal tissues

## CN(C)c1ccc(-c2cn3cc(I)ccc3n2)cc1 [IMPY, 6-iodo-2-[4′-(N,N-dimethylamino)phenyl]imidazo[1,2-a]pyridine]
[11]
  Clearance from normal tissues: rapid clearance from normal tissues
[9]
  Reverse mutation test result: positive

## CNc1ccc(/C=C/c2ccc(O)cc2)cc1 [SB-13, (E)-4-methylamino-4′-hydroxystilbene]
[12]
  Clearance from normal tissues: it cannot be said that the clearance is sufficiently fast

## CN(C)c1ccc(-c2nc3ccc(I)cc3s2)cc1 [TZDM, 6-iodo-2-[4′-(N,N-dimethylamino)phenyl]benzothiazole]
[10]
  Clearance from normal tissues: insufficient in clearance from normal tissues

## CN(C)c1ccc(-c2cn3cc([125I])ccc3n2)cc1 [[^125I]-IMPY, reference compound]
[4]
  logPoctanol value: 2.1

## CN(C)c1ccc(-c2cn3cc([123I])ccc3n2)cc1 [^123I-IMPY, reference compound]
[6]
  Radioactive accumulation per unit weight, After 2 min.: 1.02 % ID/g
  Radioactive accumulation per unit weight, After 5 min.: 0.99 % ID/g
  Radioactive accumulation per unit weight, After 30 min.: 0.20 % ID/g
  Radioactive accumulation per unit weight, After 60 min.: 0.08 % ID/g
[8]
  Radioactive accumulation per unit weight, After 2 min.: 1.19 % ID/g
  Radioactive accumulation per unit weight, After 5 min.: 0.97 % ID/g
  Radioactive accumulation per unit weight, After 30 min.: 0.23 % ID/g
  Radioactive accumulation per unit weight, After 60 min.: 0.09 % ID/g

## CN(C)c1ccc(/C=C/c2ccc(I)cc2)cc1 [m-I-SB, (E)-4-dimethylamino-4′-iodostilbene]
[10]
  Clearance from normal tissues: insufficient in clearance from normal tissues
